Structures can show the parent of a compound that is named as a salt.
What follows are molecules tested against T1, TAK1-TAB1 fusion protein (Homo sapiens, UniProt O43318) (assay: TAK1 biochemical assay (AlphaScreen, GST-MAP2K7 substrate)). Conditions: TAK1-TAB1 fusion protein, GST-MAP2K7 substrate; read-out: mean TAK1 IC50 (Col. A).
T1 construct: purchased Carna
T1 sequence (O43318 with tags, fused parts or gaps limits assumed): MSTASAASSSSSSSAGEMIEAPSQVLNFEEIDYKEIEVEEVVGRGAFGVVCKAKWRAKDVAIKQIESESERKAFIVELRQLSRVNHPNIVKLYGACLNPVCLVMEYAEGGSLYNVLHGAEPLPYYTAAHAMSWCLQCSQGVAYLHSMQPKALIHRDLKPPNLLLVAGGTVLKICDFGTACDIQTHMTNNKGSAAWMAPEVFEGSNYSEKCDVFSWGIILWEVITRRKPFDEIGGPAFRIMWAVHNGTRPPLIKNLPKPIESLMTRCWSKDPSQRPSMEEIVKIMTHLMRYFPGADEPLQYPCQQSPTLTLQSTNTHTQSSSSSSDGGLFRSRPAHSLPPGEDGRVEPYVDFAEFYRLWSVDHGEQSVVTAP

| SMILES | IC50 |
| --- | --- |
| Cn1cnc(-c2cnc(N)c3oc(-c4csc5cnccc45)cc23)c1 [Example 395, 4-(1-methyl-1H-imidazol-4-yl)-2-thieno[2,3-c]pyridin-3-yl-furo[2,3-c]pyridin-7-ylamine] | > 10 µM |
| CC(=O)N1CCC(n2cc(-c3cnc(N)c4oc(-c5ccc(OC(F)(F)F)cc5)cc34)cn2)CC1 [Example 173, 1-[4-(4-{7-amino-2-[4-(trifluoromethoxy)phenyl]furo[2,3-c]pyridin-4-yl}-1H-pyrazol-1-yl)piperidin-1-yl]ethanone] | > 10 µM |
| Nc1ncc(-c2ccc(-c3ccccc3)s2)c2cc(-c3csc4cnccc34)oc12 [Example 385, 4-(5-phenyl-thiophen-2-yl)-2-thieno[2,3-c]pyridin-3-yl-furo[2,3-c]pyridin-7-ylamine] | > 10 µM |
| Nc1ncc(-c2cnn(C3CCNCC3)c2)c2cc(-c3ccccc3)oc12 [Example 2, 2-phenyl-4-[1-(piperidin-4-yl)-1H-pyrazol-4-yl]furo[2,3-c]pyridin-7-amine] | 1 to 10 µM |
| CC(=O)N1CCC(n2cc(-c3cnc(N)c4oc(-c5ccccc5C(N)=O)cc34)cn2)CC1 [Example 172, 2-{4-[1-(1-acetylpiperidin-4-yl)-1H-pyrazol-4-yl]-7-aminofuro[2,3-c]pyridin-2-yl}benzamide] | 1 to 10 µM |
| CC(=O)N1CCC(n2cc(-c3cnc(N)c4oc(-c5csc6cc(=O)n(C)cc56)cc34)cn2)CC1 [Example 258, 3-{4-[1-(1-acetylpiperidin-4-yl)-1H-pyrazol-4-yl]-7-aminofuro[2,3-c]pyridin-2-yl}-5-methylthieno[3,2-c]pyridin-6(5H)-one trifluoroacetic Acid Salt] | 1 to 10 µM |
| CC(C)(C)OC(=O)N1CCC(n2cc(-c3cnc(N)c4oc(-c5cccc6ccsc56)cc34)cn2)CC1 [Example 17A] | > 10 µM |
| Cc1c(-c2ccccc2)oc2c(N)ncc(-c3cnn(C4CCNCC4)c3)c12 [Example 9, methyl-2-phenyl-4-[1-(piperidin-4-yl)-1H-pyrazol-4-yl]furo[2,3-c]pyridin-7-amine hydrochloride] | 1 to 10 µM |
| Cc1c(-c2cnc(N)c3oc(-c4csc5cnccc45)cc23)cnn1[C@H]1CC[C@H](O)CC1 [Example 305, 4-[4-(7-amino-2-thieno[2,3-c]pyridin-3-yl-furo[2,3-c]pyridin-4-yl)-5-methyl-pyrazol-1-yl]-cyclohexanol] | 1 to 10 µM |
| Nc1ncc(-c2cnn(C3CCNCC3)c2)c2cc(-c3cccc(C(F)(F)F)c3)oc12 [Example 6, 4-[1-(piperidin-4-yl)-1H-pyrazol-4-yl]-2-[3-(trifluoromethyl)phenyl]furo[2,3-c]pyridin-7-amine] | 1 to 10 µM |
| N#Cc1sccc1-c1cnc(N)c2oc(-c3csc4cnccc34)cc12 [Example 384] | > 10 µM |
| CC(=O)N1CCC(n2cc(-c3cnc(N)c4oc(-c5csc6cn(C)c(=O)cc56)cc34)cn2)CC1 [Example 244, 3-{4-[1-(1-acetylpiperidin-4-yl)-1H-pyrazol-4-yl]-7-aminofuro[2,3-c]pyridin-2-yl}-6-methylthieno[2,3-c]pyridin-5(6H)-one trifluoroacetate] | 1 to 10 µM |
| CCNc1ncc(-c2cnn(C3CCN(C(C)=O)CC3)c2)c2cc(-c3csc4cnccc34)oc12 [Example 277, 1-(4-{4-[7-(ethylamino)-2-(thieno[2,3-c]pyridin-3-yl)furo[2,3-c]pyridin-4-yl]-1H-pyrazol-1-yl}piperidin-1-yl)ethanone trifluoroacetic acid salt] | 1 to 10 µM |
| Nc1ncc(-c2cnn(C3CCN(C(=O)Nc4cccc(Cc5ccccc5)c4)CC3)c2)c2cc(-c3cccc4cnsc34)oc12 [Example 339, 4-[4-(7-amino-2-benzo[d]isothiazol-7-yl-furo[2,3-c]pyridin-4-yl)-pyrazol-1-yl]-piperidine-1-carboxylic acid (3-benzyl-phenyl)-amide] | 1 to 10 µM |
| Cc1csc(-c2cnc(N)c3oc(-c4csc5cnccc45)cc23)c1 [Example 375, 4-(4-methyl-thiophen-2-yl)-2-thieno[2,3-c]pyridin-3-yl-furo[2,3-c]pyridin-7-ylamine] | 1 to 10 µM |
| Nc1ncc(-c2cnn(C3CCNCC3)c2)c2cc(C3CCNCC3)oc12 [Example 54, 2-(piperidin-4-yl)-4-[1-(piperidin-4-yl)-1H-pyrazol-4-yl]furo[2,3-c]pyridin-7-amine] | > 10 µM |
| CC(=O)N1CCC(n2cc(-c3cnc(N)c4oc(-c5ccnc6cc(Cl)ccc56)cc34)cn2)CC1 [Example 409, 1-(4-{4-[7-amino-2-(7-chloroquinolin-4-yl)furo[2,3-c]pyridin-4-yl]-1H-pyrazol-1-yl}piperidin-1-yl)ethanone] | 1 to 10 µM |
| CC(=O)N1CCC(n2cc(-c3cnc(N)c4oc(-c5cccc(C(F)(F)F)c5)cc34)cn2)CC1 [Example 185, 1-[4-(4-{7-amino-2-[3-(trifluoromethyl)phenyl]furo[2,3-c]pyridin-4-yl}-1H-pyrazol-1-yl)piperidin-1-yl]ethanone] | 1 to 10 µM |
| Nc1ncc(-c2cnn([C@H]3CC[C@H](O)CC3)c2)c2cc(-c3c(-c4ccccc4)sc4cnccc34)oc12 [Example 269, trans-4-{4-[7-amino-2-(2-phenylthieno[2,3-c]pyridin-3-yl)furo[2,3-c]pyridin-4-yl]-1H-pyrazol-1-yl}cyclohexanol trifluoroacetate] | 1 to 10 µM |

More lines, now with the values ahead:

| IC50 | SMILES |
| --- | --- |
| 1 to 10 µM | CSc1nc2cccc(-c3cc4c(-c5cnn(C6CCN(C(C)=O)CC6)c5)cnc(N)c4o3)c2s1 [Example 352, 1-[4-(4-{7-amino-2-[2-(methylsulfanyl)-1,3-benzothiazol-7-yl]furo[2,3-c]pyridin-4-yl}-1H-pyrazol-1-yl)piperidin-1-yl]ethanone trifluoroacetate] |
| 1 to 10 µM | COc1cccc(-c2cc3c(-c4cnn(C5CCN(C(C)=O)CC5)c4)cnc(N)c3o2)c1 [Example 161, 1-(4-{4-[7-amino-2-(3-methoxyphenyl)furo[2,3-c]pyridin-4-yl]-1H-pyrazol-1-yl}piperidin-1-yl)ethanone] |
| 1 to 10 µM | Cc1ccc(-c2cnc(N)c3oc(-c4csc5cnccc45)cc23)o1 [Example 387, 4-(5-methylfuran-2-yl)-2-(thieno[2,3-c]pyridin-3-yl)furo[2,3-c[pyridin-7-amine trifluoroacetate] |
| 0.1 to 1 µM | CC(=O)N1CCC(n2cc(-c3cnc(N)c4oc(-c5ccccc5CO)cc34)cn2)CC1 [Example 194, 1-[4-(4-{7-amino-2-[2-(hydroxymethyl)phenyl]furo[2,3-c]pyridin-4-yl}-1H-pyrazol-1-yl)piperidin-1-yl]ethanone] |
| 1 to 10 µM | COc1cc2c(-c3cc4c(-c5cnn([C@H]6CC[C@H](O)CC6)c5)cnc(N)c4o3)csc2cn1 [Example 250, trans-4-{4-[7-amino-2-(5-methoxythieno[2,3-c]pyridin-3-yl)furo[2,3-c]pyridin-4-yl]-1H-pyrazol-1-yl}cyclohexanol bis(trifluoroacetate)] |
| 1 to 10 µM | CS(=O)(=O)Nc1cccc(-c2cc3c(-c4cnn(C5CCNCC5)c4)cnc(N)c3o2)c1 [Example 23, N-(3-{7-amino-4-[1-(piperidin-4-yl)-1H-pyrazol-4-yl]furo[2,3-c]pyridine-2-yl}phenyl)methanesulfonamide] |
| 1 to 10 µM | Nc1ncc(-c2cnn(C3CCNCC3)c2)c2cc(-c3cccc(-c4nnn[nH]4)c3)oc12 [Example 40, 4-[1-(piperidin-4-yl)-1H-pyrazol-4-yl]-2-[3-(1H-tetrazol-5-yl)phenyl]furo[2,3-c]pyridine-7-amine] |
| 1 to 10 µM | Nc1ncc(-c2cnn(C3CCNCC3)c2)c2cc(-c3cccnc3)oc12 [Example 26, 4-[1-(piperidin-4-yl)-1H-pyrazol-4-yl]-2-(yridine-3-yl)furo[2,3-c]pyridine-7-amine] |
| 1 to 10 µM | COC(=O)c1cc(-c2cnc(N)c3oc(-c4csc5cnccc45)cc23)cn1C [Example 398, 4-(7-amino-2-thieno[2,3-c]pyridin-3-yl-furo[2,3-c]pyridin-4-yl)-1-methyl-1H-pyrrole-2-carboxylic acid methyl ester] |
| 1 to 10 µM | CC(=O)N1CCC(n2cc(-c3cnc(N)c4oc(-c5cccc(S(N)(=O)=O)c5)cc34)cn2)CC1 [Example 102, 3-{4-[1-(1-acetylpiperidin-4-yl)-1H-pyrazol-4-yl]-7-aminofuro[2,3-c]pyridin-2-yl}benzenesulfonamide] |
| 1 to 10 µM | Cc1n[nH]c(C)c1-c1cnc(N)c2oc(-c3csc4cnccc34)cc12 [Example 295, 4-(3,5-dimethyl-1H-pyrazol-4-yl)-2-thieno[2,3-c]pyridin-3-yl-furo[2,3-c]pyridin-7-ylamine] |
| 1 to 10 µM | COc1cc(-c2cc3c(-c4cnn(C5CCN(C(C)=O)CC5)c4)cnc(N)c3o2)ccc1N [Example 150, 1-(4-{4-[7-amino-2-(4-amino-3-methoxyphenyl)furo[2,3-c]pyridin-4-yl]-1H-pyrazol-1-yl}piperidin-1-yl)ethanone] |
| 1 to 10 µM | CC(=O)N1CCC(n2cc(-c3cnc(N)c4oc(-c5ccc(CC#N)cc5)cc34)cn2)CC1 [Example 179, (4-{4-[1-(1-acetylpiperidin-4-yl)-1H-pyrazol-4-yl]-7-aminofuro[2,3-c]pyridin-2-yl}phenyl)acetonitrile] |
| 0.1 to 1 µM | Nc1ncc(-c2cnn(CC(=O)O)c2)c2cc(-c3csc4cnccc34)oc12 [Example 296, [4-(7-amino-2-thieno[2,3-c]pyridin-3-yl-furo[2,3-c]pyridin-4-yl)-pyrazol-1-yl]-acetic acid] |
| 0.1 to 1 µM | Nc1ncc(-c2cnn([C@H]3CC[C@H](O)CC3)c2)c2cc(-c3cc(-c4cc[nH]n4)cc4nnsc34)oc12 [Example 374, trans-4-(4-{7-amino-2-[5-(1H-pyrazol-3-yl)-1,2,3-benzothiadiazol-7-yl]furo[2,3-c]pyridin-4-yl}-1H-pyrazol-1-yl)cyclohexanol] |
